Experimental data reported in patent US11466044B2 (WAYNE STATE UNIVERSITY, priority 2017, dated 2022).
Converted amounts (≈) assume the structure as drawn. Counter-ions that a name gives are not always drawn. Like-named read-outs stand apart in the source and are kept apart here.

Experiments:
[1] = test system: cytosolic ribosome (human chimeric); assay type: biochemical; conditions: for Selectivity for Binding to the Bacterial Ribosome over the Cytosolic Ribosome: Table 3 (Example 3); for IC50: cytosolic, Table 4 (Example 3), read-out: IC50 Cyt
From the text: (§1) The antiribosomal activity of these compounds was investigated with cell-free translation assays using both wild type bacterial ribosomes and hybrid ribosomes carrying eukaryotic decoding A sites enabling the prediction of selectivity.

[2] = test system: mitochondrial ribosome (human chimeric); assay type: biochemical; conditions: for Selectivity for Binding to the Bacterial Ribosome over the Mitochondrial Ribosome: Table 3 (Example 3); for IC50: mitochondrial, Table 4 (Example 3), read-out: IC50 Mit
From the text: as §1

[3] = test system: M. abscessus; experiment: MIC by broth microdilution, M. abscessus; assay type: cell-based; conditions: Mycobacteroides abscessus
[4] = test system: Klebsiella pneumonia AG215; experiment: MIC by broth microdilution, Klebsiella pneumonia; assay type: cell-based; conditions: Klebsiella pneumoniae; strain AG215 Klebsiella pneumonia; read-out: MIC AG215 K. pneumon
[5] = test system: wild type bacterial ribosomes; experiment: in-vitro translation assay, bacterial ribosomes; assay type: biochemical; conditions: for IC50: bacterial ribosome, Table 4 (Example 3), read-out: IC50 Bac; for selectivity for the bacterial ribosome over mitochondrial (wild type, A1555G mutant) and cytosolic ribosomes, in words: compared with the parent compound
From the text: as §1

[6] = test system: Acinetobacter baumannii pittii AG225; experiment: MIC by broth microdilution, Acinetobacter baumannii; assay type: cell-based; conditions: strain AG225 Acinetobacter baumannii pittii
[7] = test system: E coli wild type; experiment: MIC by broth microdilution, wild type E coli; assay type: cell-based; conditions: for MIC: Escherichia coli; for antibacterial activity, in words: MRSA and E coli, compared with the parent compound
[8] = Casinelli et al., J Antibiotics 1978, 31, 378 and 382; cited from earlier work
[9] = test system: E coli carrying specific resistance determinants; experiment: MIC by broth microdilution, E coli carrying specific resistance determinants; assay type: cell-based; conditions: for MIC: Escherichia coli
[10] = test system: P aeruginosa; experiment: MIC by broth microdilution, P aeruginosa isolates; assay type: cell-based, Pseudomonas aeruginosa; conditions: strain AG220 Pseudomonas aeruginosa ATCC27853; read-out: MIC AG220 P. aerugin
[11] = test system: MRSA; experiment: MIC by broth microdilution, MRSA isolates; assay type: cell-based; conditions: Staphylococcus aureus, MRSA, Table 1 (Example 3)
[12] = test system: Enterobacter cloacae AG290; experiment: MIC by broth microdilution, Enterobacter cloacae; assay type: cell-based; conditions: strain AG290 Enterobacter cloacae; read-out: MIC AG290 E. cloacae
[13] = test system: M. smegmatis SZ380; experiment: MIC by broth microdilution, M. smegmatis; conditions: Mycolicibacterium smegmatis
[14] = test system: A1555G mutant mitochondrial ribosome (human chimeric); experiment: in-vitro translation assay, human chimeric ribosomes, A1555G mutant mitochondrial decoding site; assay type: biochemical; conditions: Table 3 (Example 3)
From the text: as §1

[15] = test system: N. gonorrhoeae; experiment: Disk diffusion, N. gonorrhoeae; assay type: cell-based; conditions: Neisseria gonorrhoeae
[16] = ATCC19977, ATCC 19977 WT, Table 5 (Example 3), read-out: MIC M. abscessus ATCC 19977 WT
[17] = read-out: MIC M. abscessus engineered Δeis2
[18] = ATCC, Table 4 (Example 3), read-out: MIC M. abscessus ATCC
[19] = Clin. Isol., Table 4 (Example 3), read-out: MIC M. abscessus Clin. Isol.
[20] = AG006 Wild type, Table 2 (Example 3), read-out: MIC E coli AG006 Wild type
[21] = AG104 Wild type, Table 2 (Example 3), read-out: MIC E coli AG104 Wild type
[22] = ATCC25922, strain AG212 E. coli (ATCC25922), read-out: MIC AG212 E. coli
[23] = WT, Table 4 (Example 3), read-out: MIC E. coli WT
[24] = WT, Table 5 (Example 3), read-out: MIC E. coli WT
[25] = clinical isolate AG001, Table 1 (Example 3), read-out: MIC E coli AG001
[26] = clinical isolate AG003, Table 1 (Example 3), read-out: MIC E coli AG003
[27] = clinical isolate AG055, Table 1 (Example 3), read-out: MIC E coli AG055
[28] = read-out: MIC E coli AG106 AAC(2′)
[29] = read-out: MIC E. coli AAC(2′) AG106
[30] = read-out: MIC E. coli AAC(2′) pH434
[31] = read-out: MIC E. coli AG106 AAC(2′)-Ia
[32] = read-out: MIC E. coli pGB2armA armA
[33] = read-out: MIC E. coli pH434 AAC(2′)-Ib
[34] = clinical isolate AG038, read-out: MIC MRSA AG038
[35] = clinical isolate AG039, read-out: MIC MRSA AG039
[36] = clinical isolate AG042, read-out: MIC MRSA AG042
[37] = clinical isolate AG044, read-out: MIC MRSA AG044
[38] = SZ380, read-out: MIC M. smegmatis SZ380 WT, SZ380 WT, Table 5 (Example 3)
[39] = SZ380, read-out: MIC SZ380 M. smegmatis, strain SZ380 Mycobacterium smegmatis

| Compound | Selectivity for Binding to the Bacterial Ribosome over the Cytosolic Ribosome [1] | IC50 [1] [µM] | Selectivity for Binding to the Bacterial Ribosome over the Mitochondrial Ribosome [2] | IC50 [2] [µM] | MIC [3, 16] [µg/mL] | MIC [3, 17] [µg/mL] | MIC [3, 18] [µg/mL] | MIC [3, 19] [µg/mL] | MIC [4] [µg/mL] | IC50 [5] [nM] | selectivity for the bacterial ribosome over mitochondrial (wild type, A1555G mutant) and cytosolic ribosomes, in words [5] | MIC [6] [µg/mL] | MIC [7, 22] [µg/mL] | MIC [7, 23] [µg/mL] | MIC [7, 24] [µg/mL] | MIC [7, 25] [µg/mL] | MIC [7, 26] [µg/mL] | MIC [7, 27] [µg/mL] | MIC [9, 29] [µg/mL] | MIC [9, 30] [µg/mL] | also measured |
| --- | --- | --- | --- | --- | --- | --- | --- | --- | --- | --- | --- | --- | --- | --- | --- | --- | --- | --- | --- | --- | --- |
| NCC1OC(OC2C(CO)OC(OC3C(O)C(N)CC(N)C3OC3OC(CN)C(O)C(O)C3O)C2O)C(N)C(O)C1O (centres unmarked) [Compound 119] | 3667 | 108 | 1222 | 36 | 2 (≈ 3.25 µM) | 0.125 (≈ 0.203 µM) | 2 (≈ 3.25 µM) | 4 (≈ 6.5 µM) | 0.5 (≈ 0.812 µM) | 30 | increased selectivity for the bacterial ribosome | 1 (≈ 1.62 µM) | 1 (≈ 1.62 µM) | 0.5 to 1 (≈ 0.812 to 1.62 µM) | 0.5 to 1 (≈ 0.812 to 1.62 µM) | 2 to 4 (≈ 3.25 to 6.5 µM) | 2 to 4 (≈ 3.25 to 6.5 µM) | 2 to 4 (≈ 3.25 to 6.5 µM) | 1 (≈ 1.62 µM) | 4 (≈ 6.5 µM) | MIC [7, 20]: 0.5 µg/mL (≈ 0.812 µM); MIC [7, 21]: 1 µg/mL (≈ 1.62 µM); antibacterial activity, in words [7]: little to no loss of antibacterial activity; antibiotic potency compared with the parent compounds, in words [8]: comparable antibiotic potency to the parent compounds; effect of the AAC(2′) resistance determinant, in words [9]: overcomes the effect of AAC(2′); MIC [9, 28]: 1 µg/mL (≈ 1.62 µM); MIC [9, 31]: 1 µg/mL (≈ 1.62 µM); MIC [9, 32]: 1 µg/mL (≈ 1.62 µM); MIC [9, 33]: 4 µg/mL (≈ 6.5 µM); MIC [10]: > 64 µg/mL; MIC [11, 34]: 2 µg/mL (≈ 3.25 µM); MIC [11, 35]: > 128 µg/mL; MIC [11, 36]: > 128 µg/mL; MIC [11, 37]: 2 µg/mL (≈ 3.25 µM); MIC [12]: 1 µg/mL (≈ 1.62 µM); MIC [13, 38]: 0.5 µg/mL (≈ 0.812 µM); MIC [13, 39]: 0.5 µg/mL (≈ 0.812 µM); Selectivity for Binding to the Bacterial Ribosome over the Mutant Mitochondrial Ribosome [14]: 94 |
| CCNC1C(OC2C(N)CC(N)C(O)C2OC2OC(CO)C(OC3OC(CN)C(O)C(O)C3N)C2O)OC(CO)C(O)C1O (centres unmarked) [Compound 127] | 918 | 28 | 4715 | 141 | 32 (≈ 49.7 µM) | 0.5 (≈ 0.777 µM) | 32 (≈ 49.7 µM) | 64 (≈ 99.4 µM) | 2 (≈ 3.11 µM) | 30 | increased selectivity for the bacterial ribosome | 4 (≈ 6.21 µM) | 4 (≈ 6.21 µM) | 2 (≈ 3.11 µM) | 2 (≈ 3.11 µM) | 16 (≈ 24.9 µM) | 16 (≈ 24.9 µM) | 16 (≈ 24.9 µM) | 2 (≈ 3.11 µM) | 4 (≈ 6.21 µM) | zone of inhibition at 25 nmol/disc [15]: 9 mm; antibiotic potency compared with the parent compounds, in words [8]: comparable antibiotic potency to the parent compounds; MIC [9, 32]: 4 to 8 µg/mL (≈ 6.21 to 12.4 µM); MIC [9, 33]: 4 µg/mL (≈ 6.21 µM); MIC [10]: > 64 µg/mL; MIC [11, 34]: 8 µg/mL (≈ 12.4 µM); MIC [11, 35]: > 128 µg/mL; MIC [11, 36]: > 128 µg/mL; MIC [11, 37]: 4 to 8 µg/mL (≈ 6.21 to 12.4 µM); MIC [12]: 2 to 4 µg/mL (≈ 3.11 to 6.21 µM); MIC [13, 38]: 4 µg/mL (≈ 6.21 µM); MIC [13, 39]: 4 µg/mL (≈ 6.21 µM); Selectivity for Binding to the Bacterial Ribosome over the Mutant Mitochondrial Ribosome [14]: 1804 |
| CCNC1C(OC2C(N)CC(N)C(O)C2OC2OC(CO)C(OC3OC(CN)C(O)C(O)C3N)C2O)OC(CN)C(O)C1O (centres unmarked) [Compound 172, 2′-N-Ethyl-neomycin acetate salt] | 3111 | 43 | 850 | 11 | 0.25 | 0.063 | 0.25 | 0.5 | 0.5 | 10 | increased selectivity for the bacterial ribosome | 1 | 1 | 0.5 to 1 | 0.5 to 1 | 1 to 2 | 1 | 1 | 0.5 | 1 | zone of inhibition at 25 nmol/disc [15]: 9 mm; MIC [7, 20]: 0.5 µg/mL; MIC [7, 21]: 0.5 µg/mL; MIC [9, 28]: 0.5 µg/mL; MIC [9, 31]: 0.5 µg/mL; MIC [9, 32]: 1 µg/mL; MIC [9, 33]: 1 µg/mL; MIC [10]: > 32 µg/mL; MIC [11, 34]: 0.5 µg/mL; MIC [11, 35]: > 32 µg/mL; MIC [11, 36]: > 32 µg/mL; MIC [12]: 0.5 to 1 µg/mL; MIC [13, 38]: < 0.063 µg/mL; MIC [13, 39]: < 0.0625 µg/mL; Selectivity for Binding to the Bacterial Ribosome over the Mutant Mitochondrial Ribosome [14]: 111 |
| NCC1OC(OC2C(N)CC(N)C(O)C2OC2OC(CO)C(OC3OC(CN)C(O)C(O)C3N)C2O)CC(O)C1O (centres unmarked) [Compound 173, 2′-Deamino-neomycin acetate salt] | 3188 | 85 | 831 | 22 | 4 | 0.125 | 4 | 8 | 0.5 | 30 | increased selectivity for the bacterial ribosome | 1 | 1 | 1 | 1 | 2 | 1 to 2 | 2 | 1 | 8 | zone of inhibition at 25 nmol/disc [15]: 10 mm; MIC [7, 20]: 1 µg/mL; MIC [7, 21]: 0.5 to 1 µg/mL; antibacterial activity, in words [7]: little to no loss of antibacterial activity; effect of the AAC(2′) resistance determinant, in words [9]: overcomes the effect of AAC(2′); MIC [9, 28]: 1 µg/mL; MIC [9, 31]: 1 µg/mL; MIC [9, 32]: 1 µg/mL; MIC [9, 33]: 8 µg/mL; MIC [10]: > 64 µg/mL; MIC [11, 34]: 1 µg/mL; MIC [11, 35]: 32 µg/mL; MIC [11, 36]: 32 µg/mL; MIC [12]: 1 µg/mL; MIC [13, 38]: 0.25 µg/mL; MIC [13, 39]: 0.25 µg/mL; Selectivity for Binding to the Bacterial Ribosome over the Mutant Mitochondrial Ribosome [14]: 31 |
